Consider 18 compounds from patent publication US20220041606A1, “POSITIVE ALLOSTERIC MODULATORS OF THE MUSCARINIC ACETYLCHOLINE RECEPTOR M1” (Vanderbilt University, priority 2020, published 2022).

Test [1] has as its target T1, human mAChR M1 (Homo sapiens, UniProt P11229).
T1 construct: host or cells: CHO-K1 cells (ATCC), stably transfected using Lipofectamine2000
T1 sequence (P11229 1-460): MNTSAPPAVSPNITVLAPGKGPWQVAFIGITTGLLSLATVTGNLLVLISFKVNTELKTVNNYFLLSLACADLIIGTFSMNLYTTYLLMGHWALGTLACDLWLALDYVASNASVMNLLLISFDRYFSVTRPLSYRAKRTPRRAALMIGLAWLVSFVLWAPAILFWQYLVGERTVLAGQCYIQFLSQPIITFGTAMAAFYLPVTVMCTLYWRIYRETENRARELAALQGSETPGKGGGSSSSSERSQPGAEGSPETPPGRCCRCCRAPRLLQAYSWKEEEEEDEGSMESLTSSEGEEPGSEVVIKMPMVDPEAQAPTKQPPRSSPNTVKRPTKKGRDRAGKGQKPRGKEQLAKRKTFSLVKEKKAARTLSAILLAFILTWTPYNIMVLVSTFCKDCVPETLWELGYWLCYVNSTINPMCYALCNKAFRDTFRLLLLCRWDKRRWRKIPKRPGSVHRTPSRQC
Description: mAChR M1 cell-based functional assay (calcium mobilization), PAM activity: increase in the EC20 acetylcholine response. The following applies: CHO-K1 cells expressing hM1; potentiation of EC20 acetylcholine response. The gist of the method:
(§1)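 Fluorescence ratio calcium read-out (Fluo-4 AM, FDSS 6000) in human M1-expressing CHO-K1 cells. Agonist activity taken as concentration-dependent rise after compound addition; potentiation as enhancement of a subsequent EC20 acetylcholine challenge. Curves from 11-point threefold dilutions fitted by four-parameter logistic; Emax expressed versus acetylcholine maximum.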

Test [2] concerns the target T1, human mAChR M1. Description: mAChR M1 cell-based functional assay (calcium mobilization), agonist activity upon compound addition. The conditions noted are these: CHO-K1 cells expressing hM1; for EC50: compound alone, before acetylcholine addition; for Emax: relative to the maximum for acetylcholine. The method in brief: as §1

Regarding `Cc1cn2c(=O)n(Cc3ccc(-c4ccn(C)n4)cc3F)cc(C(=O)N[C@H]3CCOC[C@@H]3O)c2n1` [Compound B25, 6-(2-fluoro-4-(1-methyl-1H-pyrazol-3-yl)benzyl)-N-((3R,4S)-3-hydroxytetrahydro-2H-pyran-4-yl)-2-methyl-5-oxo-5,6-dihydroimidazo[1,2-c]pyrimidine-8-carboxamide], at human mAChR M1 [1], the EC50 stood at 9.29 µM and the Emax was 33%. Also, at human mAChR M1 [2], the EC50 is greater than 10 µM and the Emax is less than 5%.

As for `Cn1ccc(-c2ccc(Cn3cc(C(=O)N[C@H]4CCC[C@@H]4O)c4nccnc4c3=O)c(F)c2)n1` [Compound A64, 6-(2-fluoro-4-(1-methyl-1H-pyrazol-3-yl)benzyl)-N-((1S,2S)-2-hydroxycyclopentyl)-5-oxo-5,6-dihydropyrido[3,4-b]pyrazine-8-carboxamide], at human mAChR M1 [1], the EC50 is no less than 10 µM and the Emax was 41%. At human mAChR M1 [2], the EC50 was greater than 10 µM and the Emax stood at 41%.

As for `Cn1cc2c(-c3cc(F)c(Cn4cc(C(=O)N[C@H]5CCCC[C@@H]5O)c5ncncc5c4=O)c(F)c3)cccc2n1` [Compound A88, 6-(2,6-Difluoro-4-(2-methyl-2H-indazol-4-yl)benzyl)-N-((1S,2S)-2-hydroxycyclohexyl)-5-oxo-5,6-dihydropyrido[4,3-d]pyrimidine-8-carboxamide], at human mAChR M1 [1], the EC50 was no less than 10 µM and the Emax was 40%. Moreover, on human mAChR M1 [2], the concentration giving a half-maximal response (EC50) is greater than 10 µM and the maximal effect (Emax) was less than 5%.

Take `Cn1cc(-c2ccc(Cn3cc(C(=O)N[C@H]4CCOC[C@@H]4O)c4nccn4c3=O)c(F)c2)cn1` [Compound B5, 6-(2-fluoro-4-(1-methyl-1H-pyrazol-4-yl)benzyl)-N-((3R,4S)-3-hydroxytetrahydro-2H-pyran-4-yl)-5-oxo-5,6-dihydroimidazo[1,2-c]pyrimidine-8-carboxamide]: the values for the EC50 on human mAChR M1 [1] and on human mAChR M1 [2] were 0.046 µM and 0.15 µM, respectively. For the same compound, the Emax on human mAChR M1 [1] is 68%; at human mAChR M1 [2], 62%.

`Cn1cc2c(-c3cc(F)c(Cn4cc(C(=O)N[C@H]5CCOC[C@@H]5O)c5nccnc5c4=O)c(F)c3)cccc2n1` [Compound A66, 6-(2,6-difluoro-4-(2-methyl-2H-indazol-4-yl)benzyl)-N-((3R,4S)-3-hydroxytetrahydro-2H-pyran-4-yl)-5-oxo-5,6-dihydropyrido[3,4-b]pyrazine-8-carboxamide]: the values for the EC50 on human mAChR M1 [1] and at human mAChR M1 [2] were 0.28 µM and 5 µM, respectively. Besides, the Emax at human mAChR M1 [1] came to 72%; on human mAChR M1 [2] it was 46%.

For the compound `Cc1cnn(C)c1-c1ccc(Cn2cc(C(=O)N[C@H]3CCOC[C@@H]3O)c3nccn3c2=O)c(F)c1` [Compound B34, 6-(4-(1,4-dimethyl-1H-pyrazol-5-yl)-2-fluorobenzyl)-N-((3R,4S)-3-hydroxytetrahydro-2H-pyran-4-yl)-5-oxo-5,6-dihydroimidazo[1,2-c]pyrimidine-8-carboxamide], the EC50 at human mAChR M1 [1] was no less than 10 µM; on human mAChR M1 [2] it was greater than 10 µM. For the same compound, the Emax was 44% on human mAChR M1 [1] and less than 5% on human mAChR M1 [2].

On to `O=C(N[C@H]1CCOC[C@@H]1O)c1cn(Cc2ccc(-c3cscn3)cc2)c(=O)n2ccnc12` [Compound B17, N-((3R,4S)-3-hydroxytetrahydro-2H-pyran-4-yl)-5-oxo-6-(4-(thiazol-4-yl)benzyl)-5,6-dihydroimidazo[1,2-c]pyrimidine-8-carboxamide], for which the EC50 on human mAChR M1 [1] is 0.47 µM; on human mAChR M1 [2], greater than 10 µM. The Emax on human mAChR M1 [1] was 83%; at human mAChR M1 [2] it was 24%.

With `Cn1ccc(-c2ccc(Cn3cc(C(=O)N[C@H]4CCC[C@@H]4O)c4ncn(C)c4c3=O)c(F)c2)n1` [Compound C2, 5-(2-fluoro-4-(1-methyl-1H-pyrazol-3-yl)benzyl)-N-((1S,2S)-2-hydroxycyclopentyl)-3-methyl-4-oxo-4,5-dihydro-3H-imidazo[4,5-c]pyridine-7-carboxamide], the EC50 at human mAChR M1 [1] was 0.6 µM; at human mAChR M1 [2], greater than 10 µM. Further, the Emax at human mAChR M1 [1] was 45%; on human mAChR M1 [2] it was less than 5%.

Consider `O=C(N[C@H]1CCCCC[C@@H]1O)c1cn(Cc2ccc(-n3cccn3)cc2)c(=O)c2ccoc12` [Compound D5, 5-(4-(1H-pyrazol-1-yl)benzyl)-N-((1S,2S)-2-hydroxycycloheptyl)-4-oxo-4,5-dihydrofuro[3,2-c]pyridine-7-carboxamide], for which, at human mAChR M1 [1], the EC50 was greater than 10 µM and the Emax came to 58%. Besides, at human mAChR M1 [2], the EC50 is greater than 10 µM and the maximum response (Emax) is less than 5%.

Regarding `COc1cc(-c2cc(F)c(Cn3cc(C(=O)N[C@H]4CCOC[C@@H]4O)c4ncccc4c3=O)c(F)c2)ccc1Cl` [Compound A39, 6-((4′-chloro-3,5-difluoro-3′-methoxy-[1,1′-biphenyl]-4-yl)methyl)-N-((3R,4S)-3-hydroxytetrahydro-2H-pyran-4-yl)-5-oxo-5,6-dihydro-1,6-naphthyridine-8-carboxamide], on human mAChR M1 [1], the EC50 was no less than 10 µM and the Emax is 41%. On human mAChR M1 [2], the EC50 was greater than 10 µM and the Emax was less than 5%.

On to `Cn1cc(-c2ccc(Cn3cc(C(=O)N[C@H]4CCC[C@@H]4O)c4nccn4c3=O)c(F)c2)cn1` [Compound B7, 6-(2-fluoro-4-(1-methyl-1H-pyrazol-4-yl)benzyl)-N-((1S,2S)-2-hydroxycyclopentyl)-5-oxo-5,6-dihydroimidazo[1,2-c]pyrimidine-8-carboxamide], for which the EC50 at human mAChR M1 [1] came to 0.24 µM. Besides, the Emax on human mAChR M1 [1] is 73%; on human mAChR M1 [2], 48%.

`Cn1ccc(-c2ccc(Cn3cc(C(=O)N[C@@H]4CC[C@H]4O)c4nccn4c3=O)c(F)c2)n1` [Compound B4, 6-(2-fluoro-4-(1-methyl-1H-pyrazol-3-yl)benzyl)-N-((1R,2R)-2-hydroxycyclobutyl)-5-oxo-5,6-dihydroimidazo[1,2-c]pyrimidine-8-carboxamide]: on human mAChR M1 [1], the EC50 stood at 3.22 µM and the Emax was determined as 52%. Also, on human mAChR M1 [2], the EC50 was greater than 10 µM and the Emax was less than 5%.

`Cn1cc(-c2ccc(Cn3cc(C(=O)N[C@H]4CCOC[C@@H]4O)c4ncccc4c3=O)cc2)cn1` [Compound A58, N-((3R,4S)-3-hydroxytetrahydro-2H-pyran-4-yl)-6-(4-(1-methyl-1H-pyrazol-4-yl)benzyl)-5-oxo-5,6-dihydro-1,6-naphthyridine-8-carboxamide]: the EC50 at human mAChR M1 [1] was determined as 0.37 µM; on human mAChR M1 [2], 5.27 µM. For the same compound, the Emax worked out at 68% at human mAChR M1 [1] and 40% at human mAChR M1 [2].

Take `Cn1ccc(-c2ccc(Cn3cc(C(=O)N[C@H]4CCCCC[C@@H]4O)c4nccnc4c3=O)c(F)c2)n1` [Compound A65, 6-(2-fluoro-4-(1-methyl-1H-pyrazol-3-yl)benzyl)-N-((1S,2S)-2-hydroxycycloheptyl)-5-oxo-5,6-dihydropyrido[3,4-b]pyrazine-8-carboxamide]: the EC50 is 5.25 µM on human mAChR M1 [1] and greater than 10 µM on human mAChR M1 [2]. Besides, the Emax stood at 63% on human mAChR M1 [1] and 6% at human mAChR M1 [2].

For the compound `Cn1cc(-c2ccc(Cn3cc(C(=O)N[C@H]4CCCC[C@@H]4O)c4ncccc4c3=O)c(F)c2)cn1` [Compound A7, 6-(2-fluoro-4-(1-methyl-1H-pyrazol-4-yl)benzyl)-N-((1S,2S)-2-hydroxycyclohexyl)-5-oxo-5,6-dihydro-1,6-naphthyridine-8-carboxamide], the EC50 at human mAChR M1 [1] came to 0.29 µM. Moreover, the results for the Emax at human mAChR M1 [1] and on human mAChR M1 [2] were 89% and 12%, respectively.

Regarding `Cn1nccc1-c1cc(F)c(Cn2cc(C(=O)N[C@H]3CCOC[C@@H]3O)c3nccn3c2=O)c(F)c1` [Compound B36, 6-(2,6-difluoro-4-(1-methyl-1H-pyrazol-5-yl)benzyl)-N-((3R,4S)-3-hydroxytetrahydro-2H-pyran-4-yl)-5-oxo-5,6-dihydroimidazo[1,2-c]pyrimidine-8-carboxamide], on human mAChR M1 [1], the EC50 stood at 1.25 µM and the Emax turned out to be 78%. For the same compound, on human mAChR M1 [2], the EC50 is greater than 10 µM and the Emax is less than 5%.

Turning to `Cn1cc2c(-c3cc(F)c(Cn4cc(C(=O)NC5CC6(COC6)C5)c5occc5c4=O)c(F)c3)cccc2n1` [Compound D24, 5-(2,6-difluoro-4-(2-methyl-2H-indazol-4-yl)benzyl)-4-oxo-N-(2-oxaspiro[3.3]heptan-6-yl)-4,5-dihydrofuro[3,2-c]pyridine-7-carboxamide], the EC50 at human mAChR M1 [1] was 2.48 µM; on human mAChR M1 [2], greater than 10 µM. For the same compound, the Emax on human mAChR M1 [1] is 70%; at human mAChR M1 [2], less than 5%.

With `Cn1cc(-c2ccc(Cn3cc(C(=O)NC4CC5(COC5)C4)c4occc4c3=O)c(F)c2)cn1` [Compound D17, 5-(2-fluoro-4-(1-methyl-1H-pyrazol-4-yl)benzyl)-4-oxo-N-(2-oxaspiro[3.3]heptan-6-yl)-4,5-dihydrofuro[3,2-c]pyridine-7-carboxamide], on human mAChR M1 [1], the EC50 is greater than 10 µM and the Emax was determined as 40%. For the same compound, on human mAChR M1 [2], the EC50 was greater than 10 µM and the Emax was less than 5%.
